From article PMC8374649, “IBI362 (LY3305677), a weekly-dose GLP-1 and glucagon receptor dual agonist, in Chinese adults with overweight or obesity: A randomised, placebo-controlled, multiple ascending dose phase 1b study” (EClinicalMedicine, 2021)

Legend:
[1] = system: Gcgr knockout (KO) mice; conditions: cited from earlier work
Description: (§1) IBI362 is a long-acting synthetic peptide analogue of mammalian OXM, with a fatty-acyl moiety to extend the half-life. […] Furthermore, a first-in-human single ascending dose ...

[2] = system: healthy subjects; conditions: single ascending dose; cited from earlier work
Description: as §1

[3] = system: human GLP-1 receptors; conditions: in vitro; cited from earlier work
Description: as §1

[4] = system: Glp1r KO mice; conditions: cited from earlier work
Description: as §1

[5] = system: mouse GLP-1 receptors; conditions: in vitro; cited from earlier work
Description: as §1

[6] = system: mice; conditions: cited from earlier work
Description: as §1

[7] = system: mouse glucagon receptors; conditions: in vitro; cited from earlier work
Description: as §1

[8] = system: human glucagon receptors; conditions: in vitro; cited from earlier work
Description: as §1

[9] = system: Chinese adults with overweight or obesity; assay: Efficacy and pharmacodynamic endpoints, change from baseline to week 12; format: in vivo, human; conditions: for Body weight Percent CFB / BMI CFB / Body weight CFB / Diastolic blood pressure CFB / Fasting insulin CFB / Fasting plasma glucose CFB / LDL cholesterol CFB / Systolic blood pressure CFB / Total cholesterol CFB / Triglycerides CFB / Waist circumference CFB / Serum uric acid CFB: MMRM; for HbA1c CFB: ANCOVA, LOCF; for Serum uric acid CFB: post-hoc, baseline to week 12, LS mean (95% CI)
Description: The secondary pharmacodynamic endpoints included changes from baseline (pre-dose on day 0) to week 12 in fasting plasma glucose and fasting insulin levels. The secondary efficacy endpoints included changes from baseline to week 12 in body weight, waist circumference, waist-to-hip ratio, BMI, blood pressure, heart rate, lipids and HbA1c levels. Post-hoc comparison of changes from baseline to week 12 in serum uric acid levels was done between participants receiving IBI362 in each cohort and those receiving placebo. We used mixed effect model for repeated measures (MMRM) for post-baseline repeated measures to analyse continuous efficacy and pharmacodynamic endpoints. The MMRM included the corresponding baseline value, treatment, visit and treatment-by-visit as fixed effects and participant as a random effect. Mean change from baseline or mean percent change from baseline were analysed using a restricted maximum likelihood (REML)-based repeated measures approach in combination with the Newton Raphson Algorithm. The fix effect of visit was fitted as a repeated effect and an unstructured covariance matrix was used. In case of non-converge, matrix like Variance Components and Compound Symmetry will be tested in a subsequent order until model-convergence is achieved. The between-subject degree of freedom was used in estimating fixed effects. No missing data imputation was conducted. Least squares mean estimates of treatment effect at week 12 as well as treatment difference versus placebo alongside with two-sided 95% confidence intervals were provided for key efficacy and pharmacodynamic endpoints. Significance test for body weight was based on least squares means using a two-sided α of 0.05. HbA1c was measured only at baseline and week 12. Least squares mean estimates for HbA1c were computed from an Analysis of Covariance (ANCOVA) model with baseline HbA1c value and treatment as covariates. Last observation carried forward (LOCF) was used for imputing missing post-baseline measure. Least squares mean estimates of treatment effect at week 12 alongside with two-sided 95% confidence intervals were provided. Post-hoc analysis of serum uric acid was performed using MMRM model described above.

[10] = 1.0–2.0–3.0 mg sc once weekly, baseline to week 12, n = 8, LS mean (95% CI)
[11] = 1.5–3.0–4.5 mg sc once weekly, baseline to week 12, n = 8, LS mean (95% CI)
[12] = 2.0–4.0–6.0 mg sc once weekly, baseline to week 12, n = 7, LS mean (95% CI)

Which Body weight [1] does the source give for `CC(C)C[C@H](NC(=O)[C@H](CC(C)C)NC(=O)[C@H](Cc1c[nH]c2ccccc12)NC(=O)[C@H](CCC(=O)O)NC(=O)[C@@H](NC(=O)[C@H](Cc1ccccc1)NC(=O)[C@H](CCC(=O)O)NC(=O)[C@H](CCCCNC(=O)COCCOCCNC(=O)COCCOCCNC(=O)CC[C@H](NC(=O)CCCCCCCCCCCCCCCCCCC(=O)O)C(=O)O)NC(=O)[C@H](C)NC(=O)[C@H](CCCCN)NC(=O)[C@H](CCCCN)NC(=O)[C@H](CCC(=O)O)NC(=O)[C@H](CC(=O)O)NC(=O)[C@H](CC(C)C)NC(=O)[C@H](Cc1ccc(O)cc1)NC(=O)[C@H](CCCCN)NC(=O)[C@H](CO)NC(=O)[C@H](Cc1ccc(O)cc1)NC(=O)[C@H](CC(=O)O)NC(=O)[C@H](CO)NC(=O)[C@@H](NC(=O)[C@H](Cc1ccccc1)NC(=O)[C@@H](NC(=O)CNC(=O)[C@H](CCC(N)=O)NC(=O)C(C)(C)NC(=O)[C@@H](N)Cc1c[nH]cn1)[C@@H](C)O)[C@@H](C)O)C(C)C)C(=O)N[C@@H](CCC(=O)O)C(=O)NCC(=O)NCC(=O)N1CCC[C@H]1C(=O)N[C@@H](CO)C(=O)N[C@@H](CO)C(=O)NCC(N)=O` [IBI362] here?
Its Body weight is “decreased body weight”.

And the “Safety, glycaemic improvement and weight loss” value [2]?
Its value is “demonstrated the safety, glycaemic improvement and weight loss”.

What about the “Binding to human GLP-1 receptors” value [3] of the same molecule?
The value was “potently bound”.

What about the Body weight [4] of the same molecule?
Its Body weight is “decreased body weight”.

What about the “Binding to mouse GLP-1 receptors” value [5] of the same molecule?
The value was “potently bound”.

What about the “Energy expenditure as compared with vehicle” value [6] of the same molecule?
The value was “increased energy expenditure”.

What about the Glucose control [6] of the same molecule?
Its Glucose control is “improved glucose control”.

And the “Binding to mouse glucagon receptors” value [7]?
The value was “potently bound”.

What about the “Binding to human glucagon receptors” value [8] of the same molecule?
Its value is “potently bound”.

What about the “Body weight Percent CFB” value ([9]; 1.0–2.0–3.0 mg sc once weekly (3.0 mg cohort), baseline to week 12, n = 8, LS mean (95% CI)) of the same molecule?
The value was −4.81%.

What about the “HbA1c CFB” value [9, 10] of the same molecule?
The value was −0.38%.

What about the “BMI CFB” value [9, 10] of the same molecule?
The value was −1.44 kg/m².

What about the “Body weight CFB” value [9, 10] of the same molecule?
Its value is -3.80 kg.

And the “Diastolic blood pressure CFB” value [9, 10]?
Its value is −8.48 mm Hg.

What about the “Fasting insulin CFB” value [9, 10] of the same molecule?
The value was −3.58 µU/mL.

And the “Fasting plasma glucose CFB” value [9, 10]?
Its value is -0.30 mmol/L.

What about the “LDL cholesterol CFB” value [9, 10] of the same molecule?
Its value is -0.11 mmol/L.

And the “Systolic blood pressure CFB” value [9, 10]?
Its value is −8.26 mm Hg.

What about the “Total cholesterol CFB” value [9, 10] of the same molecule?
Its value is -0.74 mmol/L.

And the “Triglycerides CFB” value [9, 10]?
The value was -0.44 mmol/L.

What about the “Waist circumference CFB” value [9, 10] of the same molecule?
The value was −3.25 cm.

And the “Body weight Percent CFB” value ([9]; 1.5–3.0–4.5 mg sc once weekly (4.5 mg cohort), baseline to week 12, n = 8, LS mean (95% CI))?
Its value is −6.40%.

And the “HbA1c CFB” value [9, 11]?
The value was −0.24%.

What about the “BMI CFB” value [9, 11] of the same molecule?
Its value is −2.00 kg/m².

What about the “Body weight CFB” value [9, 11] of the same molecule?
The value was -5.77 kg.

What about the “Diastolic blood pressure CFB” value [9, 11] of the same molecule?
The value was −5.76 mm Hg.

And the “Fasting insulin CFB” value [9, 11]?
The value was −6.14 µU/mL.

What about the “Fasting plasma glucose CFB” value [9, 11] of the same molecule?
The value was -0.11 mmol/L.

What about the “LDL cholesterol CFB” value [9, 11] of the same molecule?
The value was -0.25 mmol/L.

What about the “Systolic blood pressure CFB” value [9, 11] of the same molecule?
Its value is −5.80 mm Hg.

What about the “Total cholesterol CFB” value [9, 11] of the same molecule?
Its value is -0.68 mmol/L.

What about the “Triglycerides CFB” value [9, 11] of the same molecule?
The value was -0.55 mmol/L.

And the “Waist circumference CFB” value [9, 11]?
Its value is −4.57 cm.

And the “Body weight Percent CFB” value ([9]; 2.0–4.0–6.0 mg sc once weekly (6.0 mg cohort), baseline to week 12, n = 7, LS mean (95% CI))?
Its value is −6.05%.

What about the “HbA1c CFB” value [9, 12] of the same molecule?
The value was −0.23%.

And the “BMI CFB” value [9, 12]?
Its value is −1.88 kg/m².

And the “Body weight CFB” value [9, 12]?
The value was -5.12 kg.

And the “Diastolic blood pressure CFB” value [9, 12]?
The value was −2.73 mm Hg.

And the “Fasting insulin CFB” value [9, 12]?
The value was −0.42 µU/mL.

And the “Fasting plasma glucose CFB” value [9, 12]?
Its value is -0.13 mmol/L.

And the “LDL cholesterol CFB” value [9, 12]?
The value was -0.34 mmol/L.

And the “Systolic blood pressure CFB” value [9, 12]?
Its value is −5.59 mm Hg.

What about the “Total cholesterol CFB” value [9, 12] of the same molecule?
Its value is -0.81 mmol/L.

What about the “Triglycerides CFB” value [9, 12] of the same molecule?
The value was -0.74 mmol/L.

And the “Waist circumference CFB” value [9, 12]?
Its value is −5.00 cm.

And the “Serum ALT and AST levels” value ([9]; all three dose cohorts (Fig. S6))?
The value was “decreased from baseline”.

What about the “Serum uric acid CFB” value ([9]; 3.0 mg cohort (1.0-2.0-3.0 mg)) of the same molecule?
The value was -43.67 µmol/L.

And the “Serum uric acid CFB” value ([9]; 4.5 mg cohort (1.5-3.0-4.5 mg))?
Its value is -83.47 µmol/L.

What about the “Serum uric acid CFB” value ([9]; 6.0 mg cohort (2.0-4.0-6.0 mg)) of the same molecule?
Its value is -87.48 µmol/L.

What about the “Participants with coincident decrease in body weight, LDL cholesterol, triglycerides, blood pressure and serum uric acid” value ([9]; week 12, all IBI362 cohorts, 10 participants, data not shown) of the same molecule?
The value was 41.7%.

What about the “Participants achieving ≥5% weight loss from baseline” value ([9]; week 12, all IBI362 cohorts, thirteen participants) of the same molecule?
Its value is 54.2%.
